Measurements as given in patent publication US12187705B2, “Heteroaryl-triazole and heteroaryl-tetrazole compounds as pesticides” (Bayer Aktiengesellschaft, priority 2018, dated 2025).

Columns and labels:
Type in all cases: in vivo
Ctenocephalides felis = Ctenocephalides felis in-vitro contact test adult cat flea; conditions: Ctenocephalides felis; 5 μg/cm^2 (=500 g/ha), after 48 hours; read-out: efficacy (fleas dead or moribund)
Protocol: Ctenocephalides felis—In-Vitro Contact Test Adult Cat Flea
9 mg compound is solved in 1 ml acetone and diluted with acetone to the desired concentration. 250 μl of the test solution is filled in 25 ml glass test tubes and homogeneously distributed on the inner walls by rotation and tilting on a shaking device (2 h at 30 rpm). With a compound concentration of 900 ppm, an inner surface of 44.7 cm^2 and a homogeneous distribution, a dose of 5 μg/cm^2 is achieved.
After the solvent has evaporated, each test tube is filled with 5-10 adult cat fleas (Ctenocephalides felis), closed with a perforated lid and incubated in a lying position at room temperature and relative humidity. After 48 hours efficacy is determined. The fleas are patted on the ground of the tubes and are incubated on a heating plate at 45-50° C. for at most 5 minutes. Immotile or uncoordinated moving fleas, which are not able to escape the heat by climbing upwards, are marked as dead or moribund.
An efficacy of 100% means all fleas are dead or moribund; 0% means no fleas are dead or moribund.

Diabrotica balteata = Diabrotica balteata spray test; conditions: Diabrotica balteata, 168 h; 160 μg/well, wheat seeds, after 7 days; read-out: efficacy (seedlings grown)
Protocol: Diabrotica balteata—Spray Test
(§1) To produce a suitable preparation of active compound, 1 part by weight of active compound is mixed with the stated amount of solvent, and the concentrate is diluted with water, containing an emulsifier concentration of 1000 ppm, to the desired concentration. Further test concentrations are prepared by dilution with emulsifier containing water.
Soaked wheat seeds (Triticum aestivum) are placed in a multiple well plate filled with agar and some water and are incubated for 1 day to germinate (5 seeds per well). The germinated wheat seeds are sprayed with a test solution containing the desired concentration of the active ingredient. Afterwards each unit is infected with 10-20 larvae of the banded cucumber beetle (Diabrotica balteata).
After 7 days efficacy in % is determined. 100% means all the seedlings have grown up like in the untreated, uninfected control; 0% means none of the seedlings have grown.

Myzus persicae [1] = experiment: Myzus persicae oral test; conditions: 120 h
Protocol: To produce a suitable preparation of active compound, 1 part by weight of active compound is mixed with the stated amount of solvent, and the concentrate is diluted with water to the desired concentration.
50 μl compound solution is filled in microtiter plates and 150 μl IPL41 insect medium (33%+15% sugar) is added to obtain a total volume of 200 μl per well. Afterwards the plates are sealed with parafilm through which a mixed population of the green peach aphid (Myzus persicae) can suck on the compound preparation.
(§2) After 5 days mortality in % is determined. 100% means all aphids have been killed and 0% means none of the aphids have been killed.

Myzus persicae [2] = experiment: Myzus persicae spray test; conditions: in Brassica rapa, foliar, 120 h
Protocol: Myzus persicae—Spray Test
as §1, with “solvents” for “solvent,”, “and” for “and the concentrate”
Chinese cabbage (Brassica pekinensis) leaf disks infected with all instars of the green peach aphid (Myzus persicae), are sprayed with a preparation of the active ingredient of the desired concentration.
as §2

Nezara viridula = Nezara viridula spray test; conditions: in Hordeum vulgare, 96 h
Protocol: Nezara viridula—Spray Test
as §1
Barley plants (Hordeum vulgare) infested with larvae of the southern green stink bug (Nezara viridula) are sprayed with a test solution containing the desired concentration of the active ingredient.
After 4 days mortality in % is determined. 100% means all the stink bugs have been killed; 0% means none of the stink bugs have been killed.

Spodoptera frugiperda = Spodoptera frugiperda spray test; conditions: in Zea mays, 168 h
Protocol: Spodoptera frugiperda—Spray Test
as §1, with “solvents” for “solvent,”, “and” for “and the concentrate”
Maize (Zea mays) leaf sections are sprayed with a preparation of the active ingredient of the desired concentration. Once dry, the leaf sections are infested with fall armyworm larvae (Spodoptera frugiperda).
After 7 days mortality in % is determined. 100% means all caterpillars have been killed and 0% means none of the caterpillars have been killed.

Row | Compound | pest or weed control at 5 µg/cm2, 5 µg/cm2 (Ctenocephalides felis) | pest or weed control at 160 µg/disc, 160 µg/well (Diabrotica balteata) | mortality at 4 ppm (Myzus persicae [1]) | mortality at 500 g/ha (Myzus persicae [2]) | mortality at 500 g/ha (Nezara viridula) | mortality at 500 g/ha (Spodoptera frugiperda)
1 | C[C@@H](NC(=O)c1cc(Cl)cc(S(C)(=O)=O)c1)c1ncnn1-c1ncc(C(F)(F)F)cn1 [Example I-095] | 100% | 100% | 100% | 90% | 100% | 100%
2 | Cc1cnc(-n2ncnc2[C@@H](C)NC(=O)c2cc(Cl)cc(S(C)(=O)=O)c2)nc1 [Example I-096] | – | – | 100% | 90% | 100% | 100%
3 | Cc1cnc(-n2ncnc2[C@@H](C)NC(=O)c2cc(Cl)cc(S(=O)(=O)C(F)(F)F)c2)nc1 [Example I-099] | – | 100% | 100% | 100% | 100% | 100%
4 | C[C@@H](NC(=O)c1csc(Cl)c1)c1ncnn1-c1ccc(C#N)cn1 [Example I-114] | – | 100% | – | 90% | – | –
5 | C[C@H](NC(=O)c1cc(Cl)cc(C2(C#N)CC2)c1)c1ncnn1-c1ccc(C#N)cn1 [Example I-119, 3-chloro-5-(1-cyanocyclopropyl)-N-{(1S)-1-[1-(5-cyanopyridin-2-yl)-1H-1,2,4-triazol-5-yl]ethyl}benzamide] | – | 100% | 100% | 90% | 100% | 100%
6 | C[C@@H](NC(=O)c1cc(Cl)cc(C(C)(C)C)c1)c1ncnn1-c1ncccn1 [Example I-124] | – | 100% | – | 100% | 100% | –
